# How the values were obtained:
# Assay in all cases: KINOMEscan
# Format in all cases: binding
# Settings in all cases: 1.0 µM
# DRAK1 = molecular target: T1, DRAK1 (Homo sapiens, UniProt Q9UEE5)
# T1 construct: purchased Eurofins/DiscoverX KINOMEscan scanMAX
# Experimental: (§1) Kinase retention to the immobilized ligand is then measured using quantitative real-time PCR for each kinase-specific DNA barcode.
# CAMKK1 = molecular target: T2, CAMKK1 (Homo sapiens, UniProt Q8N5S9)
# T2 construct: purchased Eurofins/DiscoverX KINOMEscan scanMAX
# Experimental: as §1
# EPHB4 = molecular target: T3, EPHB4 (Homo sapiens, UniProt P54760)
# T3 construct: purchased Eurofins/DiscoverX KINOMEscan scanMAX
# Experimental: as §1
# PAK1 = molecular target: T4, PAK1 (Homo sapiens, UniProt Q13153)
# T4 construct: purchased Eurofins/DiscoverX KINOMEscan scanMAX
# Experimental: as §1
# PIK3CA(H1047Y) = molecular target: T5, PIK3CA(H1047Y) (Homo sapiens, UniProt P42336, H1047Y)
# T5 construct: purchased Eurofins/DiscoverX KINOMEscan scanMAX
# Experimental: as §1
# MYO3B = molecular target: T6, MYO3B (Homo sapiens, UniProt Q8WXR4)
# T6 construct: purchased Eurofins/DiscoverX KINOMEscan scanMAX
# Experimental: as §1
# DCAMKL3 = molecular target: T7, DCAMKL3 (Homo sapiens, UniProt Q9C098)
# T7 construct: purchased Eurofins/DiscoverX KINOMEscan scanMAX
# Experimental: as §1
# MKNK1 = molecular target: T8, MKNK1 (Homo sapiens, UniProt Q9BUB5)
# T8 construct: purchased Eurofins/DiscoverX KINOMEscan scanMAX
# Experimental: as §1
# TNK1 = molecular target: T9, TNK1 (Homo sapiens, UniProt Q13470)
# T9 construct: purchased Eurofins/DiscoverX KINOMEscan scanMAX
# Experimental: as §1
# DMPK2 = molecular target: T10, DMPK2 (Homo sapiens, UniProt Q6DT37)
# T10 construct: purchased Eurofins/DiscoverX KINOMEscan scanMAX
# Experimental: as §1
# HPK1 = molecular target: T11, HPK1 (Homo sapiens, UniProt Q92918)
# T11 construct: purchased Eurofins/DiscoverX KINOMEscan scanMAX
# Experimental: as §1
# p38-beta = molecular target: T12, p38-beta (Homo sapiens, UniProt Q15759)
# T12 construct: purchased Eurofins/DiscoverX KINOMEscan scanMAX
# Experimental: as §1
# NIK = molecular target: T13, NIK (Homo sapiens, UniProt Q99558)
# T13 construct: purchased Eurofins/DiscoverX KINOMEscan scanMAX
# Experimental: as §1
# CLK4 = molecular target: T14, CLK4 (Homo sapiens, UniProt Q9HAZ1)
# T14 construct: purchased Eurofins/DiscoverX KINOMEscan scanMAX
# Experimental: as §1
# PIK3C2B = molecular target: T15, PIK3C2B (Homo sapiens, UniProt O00750)
# T15 construct: purchased Eurofins/DiscoverX KINOMEscan scanMAX
# Experimental: as §1
# PLK2 = molecular target: T16, PLK2 (Homo sapiens, UniProt Q9NYY3)
# T16 construct: purchased Eurofins/DiscoverX KINOMEscan scanMAX
# Experimental: as §1
# MAK = molecular target: T17, MAK (Homo sapiens, UniProt P20794)
# T17 construct: purchased Eurofins/DiscoverX KINOMEscan scanMAX
# Experimental: as §1
# ERBB3 = molecular target: T18, ERBB3 (Homo sapiens, UniProt P21860)
# T18 construct: purchased Eurofins/DiscoverX KINOMEscan scanMAX
# Experimental: as §1
# [1] = molecular target: T19, RSK1(Kin.Dom.1-N-terminal) (Homo sapiens, UniProt Q15418)
# T19 construct: RSK1(Kin.Dom.1-N-terminal); purchased Eurofins/DiscoverX KINOMEscan scanMAX
# Experimental: as §1
# YSK1 = molecular target: T20, YSK1 (Homo sapiens, UniProt O00506)
# T20 construct: purchased Eurofins/DiscoverX (KINOMEscan scanMAX service)
# Experimental: as §1
# INSRR = molecular target: T21, INSRR (Homo sapiens, UniProt P14616)
# T21 construct: purchased Eurofins/DiscoverX KINOMEscan scanMAX
# Experimental: as §1
# ROCK2 = molecular target: T22, ROCK2 (Homo sapiens, UniProt O75116)
# T22 construct: purchased Eurofins/DiscoverX KINOMEscan scanMAX
# Experimental: as §1
# MINK = molecular target: T23, MINK (Homo sapiens, UniProt Q8N4C8)
# T23 construct: purchased Eurofins/DiscoverX KINOMEscan scanMAX
# Experimental: as §1
# MYO3A = molecular target: T24, MYO3A (Homo sapiens, UniProt Q8NEV4)
# T24 construct: purchased Eurofins/DiscoverX KINOMEscan scanMAX
# Experimental: as §1
# BRAF = molecular target: T25, BRAF (Homo sapiens, UniProt P15056)
# T25 construct: purchased Eurofins/DiscoverX KINOMEscan scanMAX
# Experimental: as §1
# ULK1 = molecular target: T26, ULK1 (Homo sapiens, UniProt O75385)
# T26 construct: DNA tag (qPCR barcode); purchased Eurofins/DiscoverX KINOMEscan scanMAX
# Experimental: as §1
# MAP3K3 = molecular target: T27, MAP3K3 (Homo sapiens, UniProt Q99759)
# T27 construct: purchased Eurofins/DiscoverX KINOMEscan scanMAX
# Experimental: as §1
# [2] = molecular target: T28, ABL1(Q252H)-phosphorylated (Homo sapiens, UniProt P00519, Q252H)
# T28 construct: purchased Eurofins/DiscoverX KINOMEscan scanMAX
# Experimental: as §1
# PIK3CA(H1047L) = molecular target: T29, PIK3CA(H1047L) (Homo sapiens, UniProt P42336, H1047L)
# T29 construct: purchased Eurofins/DiscoverX KINOMEscan scanMAX
# Experimental: as §1
# PAK3 = molecular target: T30, PAK3 (Homo sapiens, UniProt O75914)
# T30 construct: purchased Eurofins/DiscoverX KINOMEscan scanMAX
# Experimental: as §1
# ACVR2A = molecular target: T31, ACVR2A (Homo sapiens, UniProt P27037)
# T31 construct: purchased Eurofins/DiscoverX KINOMEscan scanMAX
# Experimental: as §1
# PIK3CA = molecular target: T32, PIK3CA (Homo sapiens, UniProt P42336)
# T32 construct: purchased Eurofins/DiscoverX KINOMEscan scanMAX
# Experimental: as §1
# DRAK2 = molecular target: T33, DRAK2 (Homo sapiens, UniProt O94768)
# T33 construct: purchased Eurofins/DiscoverX KINOMEscan scanMAX
# Experimental: as §1
# [3] = molecular target: T34, RPS6KA5(Kin.Dom.2-C-terminal) (Homo sapiens, UniProt O75582)
# T34 construct: RPS6KA5(Kin.Dom.2-C-terminal); purchased Eurofins/DiscoverX KINOMEscan scanMAX
# Experimental: as §1
# STK39 = molecular target: T35, STK39 (Homo sapiens, UniProt Q9UEW8)
# T35 construct: purchased Eurofins/DiscoverX KINOMEscan scanMAX
# Experimental: as §1
# CDK11 = molecular target: T36, CDK11 (Homo sapiens, UniProt Q9BWU1)
# T36 construct: purchased Eurofins/DiscoverX KINOMEscan scanMAX
# Experimental: as §1
# MLK3 = molecular target: T37, MLK3 (Homo sapiens, UniProt Q16584)
# T37 construct: purchased Eurofins/DiscoverX KINOMEscan scanMAX
# Experimental: as §1
# CDK9 = molecular target: T38, CDK9 (Homo sapiens, UniProt P50750)
# T38 construct: purchased Eurofins/DiscoverX KINOMEscan scanMAX
# Experimental: as §1
# RIPK4 = molecular target: T39, RIPK4 (Homo sapiens, UniProt P57078)
# T39 construct: purchased Eurofins/DiscoverX KINOMEscan scanMAX
# Experimental: as §1
# CAMK2G = molecular target: T40, CAMK2G (Homo sapiens, UniProt Q13555)
# T40 construct: purchased Eurofins/DiscoverX KINOMEscan scanMAX
# Experimental: as §1
# CAMK2D = molecular target: T41, CAMK2D (Homo sapiens, UniProt Q13557)
# T41 construct: purchased Eurofins/DiscoverX KINOMEscan scanMAX
# Experimental: as §1
# T5 sequence (P42336 whole entry H1047Y): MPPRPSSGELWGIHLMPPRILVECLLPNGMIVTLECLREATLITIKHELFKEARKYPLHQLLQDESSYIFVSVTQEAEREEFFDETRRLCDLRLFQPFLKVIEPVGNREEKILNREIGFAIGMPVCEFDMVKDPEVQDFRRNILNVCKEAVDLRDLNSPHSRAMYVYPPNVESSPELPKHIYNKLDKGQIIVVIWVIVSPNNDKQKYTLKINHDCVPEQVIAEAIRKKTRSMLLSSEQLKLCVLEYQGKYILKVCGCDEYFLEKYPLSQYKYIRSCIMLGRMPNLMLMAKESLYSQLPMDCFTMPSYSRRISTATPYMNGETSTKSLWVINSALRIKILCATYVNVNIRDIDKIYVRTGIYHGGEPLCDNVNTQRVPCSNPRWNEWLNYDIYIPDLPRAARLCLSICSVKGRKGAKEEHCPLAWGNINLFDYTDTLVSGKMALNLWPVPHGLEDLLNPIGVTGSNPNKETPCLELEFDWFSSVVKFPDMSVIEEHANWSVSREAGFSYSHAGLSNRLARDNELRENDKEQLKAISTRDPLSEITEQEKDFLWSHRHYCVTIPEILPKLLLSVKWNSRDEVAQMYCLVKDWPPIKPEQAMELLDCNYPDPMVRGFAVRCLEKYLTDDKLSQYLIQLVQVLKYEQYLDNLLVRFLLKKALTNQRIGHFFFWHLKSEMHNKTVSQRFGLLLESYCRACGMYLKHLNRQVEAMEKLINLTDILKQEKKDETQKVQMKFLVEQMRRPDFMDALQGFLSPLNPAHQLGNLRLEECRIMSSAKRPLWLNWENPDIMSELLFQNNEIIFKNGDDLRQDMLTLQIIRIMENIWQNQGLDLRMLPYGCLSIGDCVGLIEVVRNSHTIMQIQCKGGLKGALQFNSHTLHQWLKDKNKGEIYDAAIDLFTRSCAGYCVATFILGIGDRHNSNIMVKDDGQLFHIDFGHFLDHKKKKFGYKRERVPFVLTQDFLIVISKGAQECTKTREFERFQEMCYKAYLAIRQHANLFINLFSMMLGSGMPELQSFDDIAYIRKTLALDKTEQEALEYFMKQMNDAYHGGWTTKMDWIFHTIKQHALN
# T8 sequence (Q9BUB5 whole entry): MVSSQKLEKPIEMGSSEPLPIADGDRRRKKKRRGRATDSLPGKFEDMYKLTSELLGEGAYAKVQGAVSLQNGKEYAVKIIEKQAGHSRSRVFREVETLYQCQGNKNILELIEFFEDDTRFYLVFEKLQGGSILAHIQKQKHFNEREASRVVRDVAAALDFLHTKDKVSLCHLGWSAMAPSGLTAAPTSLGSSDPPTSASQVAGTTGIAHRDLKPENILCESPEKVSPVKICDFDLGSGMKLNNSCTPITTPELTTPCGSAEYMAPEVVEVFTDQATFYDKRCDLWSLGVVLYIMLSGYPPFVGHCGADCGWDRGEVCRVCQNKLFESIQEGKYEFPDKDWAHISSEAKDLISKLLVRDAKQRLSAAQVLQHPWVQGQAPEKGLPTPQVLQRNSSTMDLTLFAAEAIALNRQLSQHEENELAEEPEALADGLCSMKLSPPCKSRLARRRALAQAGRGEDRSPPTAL
# T6 sequence (Q8WXR4 whole entry): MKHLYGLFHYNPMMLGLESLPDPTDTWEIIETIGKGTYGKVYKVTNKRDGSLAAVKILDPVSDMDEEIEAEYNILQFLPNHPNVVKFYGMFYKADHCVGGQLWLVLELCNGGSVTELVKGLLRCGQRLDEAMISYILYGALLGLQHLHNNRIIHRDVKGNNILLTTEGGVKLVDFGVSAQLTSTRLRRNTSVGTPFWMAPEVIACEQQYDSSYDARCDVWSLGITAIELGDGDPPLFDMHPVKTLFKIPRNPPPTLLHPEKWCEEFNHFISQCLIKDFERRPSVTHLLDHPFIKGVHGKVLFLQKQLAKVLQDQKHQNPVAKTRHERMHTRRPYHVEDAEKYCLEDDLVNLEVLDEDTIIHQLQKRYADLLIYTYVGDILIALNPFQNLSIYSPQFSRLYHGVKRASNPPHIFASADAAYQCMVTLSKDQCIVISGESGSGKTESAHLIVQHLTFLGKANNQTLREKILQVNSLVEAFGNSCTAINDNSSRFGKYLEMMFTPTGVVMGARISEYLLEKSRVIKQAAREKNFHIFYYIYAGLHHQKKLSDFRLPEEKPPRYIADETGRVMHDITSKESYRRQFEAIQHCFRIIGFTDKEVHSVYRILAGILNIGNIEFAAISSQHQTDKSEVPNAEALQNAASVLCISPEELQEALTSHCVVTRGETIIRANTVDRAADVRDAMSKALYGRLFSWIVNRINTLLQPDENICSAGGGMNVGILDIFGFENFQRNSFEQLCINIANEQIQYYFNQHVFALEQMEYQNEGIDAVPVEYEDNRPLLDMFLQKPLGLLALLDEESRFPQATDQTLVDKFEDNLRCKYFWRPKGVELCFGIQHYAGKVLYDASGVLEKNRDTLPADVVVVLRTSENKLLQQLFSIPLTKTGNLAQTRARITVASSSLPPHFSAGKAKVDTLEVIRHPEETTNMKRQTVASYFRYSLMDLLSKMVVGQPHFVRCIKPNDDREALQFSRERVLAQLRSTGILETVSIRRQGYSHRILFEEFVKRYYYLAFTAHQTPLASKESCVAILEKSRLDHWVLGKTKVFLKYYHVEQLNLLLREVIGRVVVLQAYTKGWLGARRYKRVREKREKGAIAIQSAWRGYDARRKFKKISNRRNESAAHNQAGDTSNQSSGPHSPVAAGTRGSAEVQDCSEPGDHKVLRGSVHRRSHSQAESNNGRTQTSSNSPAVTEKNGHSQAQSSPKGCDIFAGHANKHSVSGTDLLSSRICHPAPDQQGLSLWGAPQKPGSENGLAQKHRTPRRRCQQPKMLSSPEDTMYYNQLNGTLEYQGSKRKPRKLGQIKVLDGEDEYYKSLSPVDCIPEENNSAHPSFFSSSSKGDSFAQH
# T41 sequence (Q13557 whole entry): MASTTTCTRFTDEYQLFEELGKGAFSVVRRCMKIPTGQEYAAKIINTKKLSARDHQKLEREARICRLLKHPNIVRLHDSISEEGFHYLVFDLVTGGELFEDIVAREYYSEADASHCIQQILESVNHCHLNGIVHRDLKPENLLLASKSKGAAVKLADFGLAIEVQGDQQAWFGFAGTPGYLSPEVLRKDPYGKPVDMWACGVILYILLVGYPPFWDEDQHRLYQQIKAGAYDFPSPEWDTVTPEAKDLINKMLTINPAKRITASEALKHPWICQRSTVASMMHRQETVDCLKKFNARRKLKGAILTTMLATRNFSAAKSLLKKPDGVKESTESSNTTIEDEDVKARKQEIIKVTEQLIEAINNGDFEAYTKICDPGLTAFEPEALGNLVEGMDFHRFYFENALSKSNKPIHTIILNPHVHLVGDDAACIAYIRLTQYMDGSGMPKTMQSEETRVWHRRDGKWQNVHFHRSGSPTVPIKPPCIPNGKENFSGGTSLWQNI
# T21 sequence (P14616 27-1297): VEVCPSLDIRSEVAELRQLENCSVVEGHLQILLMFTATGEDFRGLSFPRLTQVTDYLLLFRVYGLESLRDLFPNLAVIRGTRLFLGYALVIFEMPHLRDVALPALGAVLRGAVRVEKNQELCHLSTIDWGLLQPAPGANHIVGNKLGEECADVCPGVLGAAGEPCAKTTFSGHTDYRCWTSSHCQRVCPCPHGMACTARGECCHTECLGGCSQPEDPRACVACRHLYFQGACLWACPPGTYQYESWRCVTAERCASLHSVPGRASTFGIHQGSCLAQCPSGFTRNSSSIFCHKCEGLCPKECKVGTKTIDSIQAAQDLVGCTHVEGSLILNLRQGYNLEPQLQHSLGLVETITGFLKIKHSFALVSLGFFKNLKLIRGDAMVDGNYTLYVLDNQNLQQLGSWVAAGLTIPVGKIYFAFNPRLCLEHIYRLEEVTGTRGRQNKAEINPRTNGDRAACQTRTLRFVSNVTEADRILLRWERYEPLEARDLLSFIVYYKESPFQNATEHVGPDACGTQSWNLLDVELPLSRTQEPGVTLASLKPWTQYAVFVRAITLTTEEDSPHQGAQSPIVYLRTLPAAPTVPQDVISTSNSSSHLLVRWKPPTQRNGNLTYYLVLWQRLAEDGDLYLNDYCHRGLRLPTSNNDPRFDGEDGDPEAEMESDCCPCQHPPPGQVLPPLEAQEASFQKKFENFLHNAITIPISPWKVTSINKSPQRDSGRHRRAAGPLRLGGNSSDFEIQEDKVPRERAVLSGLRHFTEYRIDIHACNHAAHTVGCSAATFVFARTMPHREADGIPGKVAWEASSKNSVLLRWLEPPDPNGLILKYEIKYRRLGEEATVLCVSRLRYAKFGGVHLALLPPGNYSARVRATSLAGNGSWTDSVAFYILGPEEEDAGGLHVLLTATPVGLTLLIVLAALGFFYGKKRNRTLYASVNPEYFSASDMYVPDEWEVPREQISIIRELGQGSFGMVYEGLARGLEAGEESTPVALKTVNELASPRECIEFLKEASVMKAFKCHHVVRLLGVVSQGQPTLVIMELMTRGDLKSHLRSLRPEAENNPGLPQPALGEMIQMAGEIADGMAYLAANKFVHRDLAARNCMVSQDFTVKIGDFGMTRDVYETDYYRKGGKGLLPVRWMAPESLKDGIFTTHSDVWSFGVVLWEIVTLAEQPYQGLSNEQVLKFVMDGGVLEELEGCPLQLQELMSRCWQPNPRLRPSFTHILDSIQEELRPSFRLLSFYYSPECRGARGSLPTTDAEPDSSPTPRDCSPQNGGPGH
# T12 sequence (Q15759 whole entry): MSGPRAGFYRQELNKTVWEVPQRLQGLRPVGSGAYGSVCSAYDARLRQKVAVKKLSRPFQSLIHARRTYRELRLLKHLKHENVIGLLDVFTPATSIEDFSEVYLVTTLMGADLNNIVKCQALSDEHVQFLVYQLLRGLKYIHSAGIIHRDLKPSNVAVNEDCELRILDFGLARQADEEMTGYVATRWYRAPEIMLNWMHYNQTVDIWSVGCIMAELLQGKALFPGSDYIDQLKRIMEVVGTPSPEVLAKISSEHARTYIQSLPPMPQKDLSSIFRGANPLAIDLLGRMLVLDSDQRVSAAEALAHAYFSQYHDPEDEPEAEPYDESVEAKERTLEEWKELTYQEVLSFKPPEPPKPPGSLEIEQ
# T32 sequence (P42336 whole entry): as the sequence (P42336 whole entry H1047Y) above, with Y1047H counted along it
# T29 sequence (P42336 whole entry H1047L): as the sequence (P42336 whole entry H1047Y) above, with Y1047L counted along it
structure (smiles),measurement,setting,value
CN1CCN(C2CCC(n3cc(-c4ccc(Oc5ccccc5)cc4)c4c(N)ncnc43)CC2)CC1 (centres unmarked) [A-419259],% Control,DRAK1,65%
same,% Control,CAMKK1,100%
same,% Control,EPHB4,100%
same,% Control,PAK1,55%
same,% Control,PIK3CA(H1047Y),99%
same,% Control,MYO3B,17%
same,% Control,DCAMKL3,100%
same,% Control,MKNK1,63%
same,% Control,TNK1,0%
same,% Control,DMPK2,36%
same,% Control,HPK1,44%
same,% Control,p38-beta,100%
same,% Control,NIK,100%
same,% Control,CLK4,100%
same,% Control,PIK3C2B,10%
same,% Control,PLK2,77%
same,% Control,MAK,100%
same,% Control,ERBB3,0.2%
same,% Control,[1],8.4%
same,% Control,YSK1,84%
same,% Control,INSRR,86%
same,% Control,ROCK2,62%
same,% Control,MINK,30%
same,% Control,MYO3A,2.7%
same,% Control,BRAF,66%
same,% Control,ULK1,99%
same,% Control,MAP3K3,6.3%
same,% Control,[2],0.5%
same,% Control,PIK3CA(H1047L),98%
same,% Control,PAK3,36%
same,% Control,ACVR2A,100%
same,% Control,PIK3CA,100%
same,% Control,DRAK2,93%
same,% Control,[3],96%
same,% Control,STK39,100%
same,% Control,CDK11,3.9%
same,% Control,MLK3,100%
same,% Control,CDK9,65%
same,% Control,RIPK4,84%
same,% Control,CAMK2G,100%
same,% Control,CAMK2D,100%
